# “And” between values parts separate entries of the source, which are not always exact repeats. Equal entries are not always repeated.
# Test system: 885512-296-R-J2-PDC complex spheroid viability
# Assay: Anticancer human tumor 885512-296-R-J2-PDC patient-derived breast carcinoma cell line growth inhibition [GQUAD]
# Settings: for viability, T/C: stronger effect = lower value
# Text: DNA G-quadruplex Stabilizer Agents in Combinations in Complex Spheroids
# A high-throughput screen of multi-cell type tumor spheroids was designed to identify active combinations of DNA G-quadruplex stabilizer agents and targeted small molecules. Complex spheroids include a stromal component modeled by human endothelial cells (HUVEC) and fibroblasts modeled by human mesenchymal stem cells (MSCs). The concentration ranges selected for each drug and investigational agent were based upon clinically achievable concentrations if the clinical Cmax of the agent was known.
# Compounds. The drugs and investigational agents: pidnarulex (CX-5461; NSC782164), APTO-253 (NSC789042), BRACO-19 (NSC847499), peposertib (NSC802822), ceralasertib (NSC780249), elimusertib (NSC800525), camonsertib (NSC841442), AZD-1390 (NSC803789), olaparib (NSC753686), talazoparib (NSC767125), ART-558 (NSC835418), sotorasib (NSC818433), MRTX-1133 (NSC836407), SN-38 (NSC673596), topotecan (NSC609699), etoposide (NSC141540), doxorubicin (NSC123127), gemcitabine (NSC613327), 5-fluorouracil (NSC19893), paclitaxel (NSC125973), vemurafenib (NSC761431), panobinostat (NSC761190), R-306465 (JNJ-16241199; NSC773264), adavosertib (NSC754352), TP-3654 (NSC805149), carboplatin (NSC241240), KSQ-4279 (NSC840948), and staurosporine (NSC755774) were obtained from the National Cancer Institute (NCI) Developmental Therapeutics Program Chemical Repository (34). The FDA-approved anticancer drug set is available from the NCI Developmental Therapeutics Program. […] The stock solutions were prepared in dimethyl sulfoxide (DMSO, Sigma-Aldrich, St. Louis, MO, cat. D2650) at 800-fold the tested concentration and stored at -70 degrees C prior to their use. All drugs and investigational agents were tested over a range starting from a high concentration at or near the clinical Cmax and decreasing in half-log increments. If the clinical Cmax for an agent had not been determined, the highest concentration tested was 10 microM.
# 2.3 Cell Culture. All cells were maintained in an incubator at 37 degrees C and 5% CO2 with 95% humidity. The PDC lines were cultured according to standard operating procedures established by the NCI PDMR. All PDCs were thawed and cultured in Matrigel-coated flasks prepared with a working solution of 1X Ham's F-12 nutrient mix, without supplementation (Invitrogen, cat. 11765054), 100 U/mL penicillin-streptomycin (Invitrogen, cat. 15140122), and 2.5% Matrigel (Corning Inc., cat. 354248) for the first three passages. The 857933-349-R-J2-PDC line was cultured in 6C/Colon 1B media, which includes advanced DMEM/F-12 (Thermo Fisher Scientific, cat. 12634028), 10 mM HEPES (Thermo Fisher Scientific, cat. 15630080), 1X GlutaMAX supplement (Thermo Fisher Scientific, cat. 35050061), 0.1 mg/mL primocin (InvivoGen, cat. ant-pm-2), 10% defined fetal bovine serum, heat inactivated (HyClone Laboratories Inc., cat. SH30070.03HI), 50% L-WRN conditioned media (ATCC, cat. CRL-3276), 1.25 mM N-Acetyl-L-cysteine (Sigma-Aldrich, cat. A9165), 10 mM nicotinamide (Sigma-Aldrich, cat. N0636), 1X B-27 supplement (Thermo Fisher Scientific, cat. 17504044), 1X N-2 supplement (Thermo Fisher Scientific, cat. 17502048), 10 microM Y-27632 dihydrochloride (Tocris Bioscience, cat. 1254), and 50 ng/mL human EGF recombinant protein (Thermo Fisher Scientific, cat. PHG0311). The 485176-168-R4-J1-PDC line was cultured in Panc media, which includes all 6C/Colon 1B media components plus 100 ng/mL human FGF-10 (Thermo Fisher Scientific, cat. 100-26), 500 nM SB-431542 (Selleckchem, cat. S1067), and gastrin (Tocris, cat. 3006).
# […]
# [1] = compound alone, run of 04/22/2024
# [2] = compound alone, run of 04/16/2024
# 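Also: spheroids exposed to the compounds for one week.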
# 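For viability, T/C in this document: percent of tumor spheroid viability relative to DMSO vehicle control wells.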
Structure (SMILES),"viability, T/C (compound 0.0316 µM)","viability, T/C (compound 0.1 µM)","viability, T/C (compound 0.316 µM)","viability, T/C (compound 1 µM)","viability, T/C (compound 3.16 µM)","viability, T/C (compound 10 µM)",IC50 (curve of compound),"viability, T/C (compound 0.000999 µM)","viability, T/C (compound 0.00316 µM)","viability, T/C (compound 0.00999 µM)","viability, T/C (compound 0.0999 µM)",IC50 [1],IC50 [2]
C#Cc1c(F)ccc2cc(O)cc(-c3ncc4c(N5CC6CCC(C5)N6)nc(OCC56CCCN5CC(F)C6)nc4c3F)c12 (stereo not drawn),107% and 90.4% and 97.3%,97.7% and 92% and 97.9%,109% and 86.7% and 97.7%,90.1% and 70.5% and 98.3%,106% and 14% and 100%,83.4% and 22.4% and 90.7%,> 10000 nM and 1570 nM,,,,,,
C=CC(=O)N1CCN(c2nc(=O)n(-c3c(C)ccnc3C(C)C)c3nc(-c4c(O)cccc4F)c(F)cc23)C(C)C1 (stereo not drawn),99% and 103% and 101%,91% and 94.9% and 108%,109% and 105% and 97.4%,109% and 98.9% and 95.3%,99.7% and 103% and 91.2%,96.4% (2×) and 95.7%,> 10000 nM,,,,,,
C=CCn1c(=O)c2cnc(Nc3ccc(N4CCN(C)CC4)cc3)nc2n1-c1cccc(C(C)(C)O)n1,94.9% and 110% and 103%,92.2% and 91.9% and 92.6%,99.1% and 52.3% and 57.8%,125% and 7.26% and 11%,,,,,,,,,
CC(=O)O[C@H]1C(=O)[C@@]2(C)[C@H]([C@H](OC(=O)c3ccccc3)[C@]3(O)C[C@H](OC(=O)[C@H](O)[C@@H](NC(=O)c4ccccc4)c4ccccc4)C(C)=C1C3(C)C)[C@]1(OC(C)=O)CO[C@@H]1C[C@@H]2O,79.3% and 9.94% and 12.2%,,21.6% and 4.6% and 3.99%,2.5% and 3.51% and 4.61%,0.25% and 3.46% and 2.82%,0.14% and 3.66% and 4.04%,113 nM and < 31.6 nM,,,,,,
CC(C)(O)C1CCC(Nc2ccc3ncc(-c4cccc(C(F)(F)F)c4)n3n2)CC1 (stereo not drawn),102% and 97.2% and 101%,93.2% and 94.8% and 101%,95.9% and 90.2% and 100%,89.1% and 67.6% and 76.8%,102% and 16.3% and 16.4%,84.3% and 28.2% and 20.7%,> 10000 nM and 1560 nM and 1700 nM,,,,,,
CC(C)n1c(=O)n(C)c2cnc3cc(F)c(-c4ccc(OCCCN5CCCCC5)nc4)cc3c21,88.8% and 89% and 85.8%,97% and 84.5% and 80.4%,88% and 93.7% and 77.8%,85.8% and 90.9% and 79.7%,104% and 97.5% and 90.3%,100% and 105% and 104%,> 10000 nM,,,,,,
CC1COCCN1c1cc(-c2ccnn2C)c2ccnc(-c3ccn[nH]3)c2n1 (stereo not drawn),48% and 48.8% and 42.3%,6.72% and 6.01% and 7.2%,2.82% and 3.14% and 2.97%,3.36% and 4.09% and 3.06%,4.39% and 4.91% and 5.11%,7.29% and 7.28% and 8.11%,< 31.6 nM,,,,,,
CC1COCCN1c1cc(C2(O)CC3CCC(C2)O3)c2cnn(-c3ccn[nH]3)c2n1 (stereo not drawn),35.6% and 35.7% and 28.2%,5.4% and 6.31% and 4.72%,3.47% and 3.66% and 2.97%,4.37% and 4.46% and 4.22%,5.77% and 6.96% and 7.53%,7.08% and 8.11% and 7.48%,< 31.6 nM,,,,,,
CC1COCCN1c1cc(C2(S(C)(=N)=O)CC2)nc(-c2ccnc3[nH]ccc23)n1 (stereo not drawn),103% (2×) and 99.8%,106% and 90.2% and 88.9%,98.9% and 83.5% and 84.4%,43% and 40% and 30%,5.74% and 6.03% and 4.64%,4.07% and 4.55% and 4.14%,865 nM and 752 nM and 652 nM,,,,,,
CCCS(=O)(=O)Nc1ccc(F)c(C(=O)c2c[nH]c3ncc(-c4ccc(Cl)cc4)cc23)c1F,115% (2×) and 92.5%,103% and 94.5% and 95.3%,68.9% and 106% and 108%,8.17% and 109% and 104%,,,,,,,,,
CC[C@@]1(O)C(=O)OCc2c1cc1n(c2=O)Cc2cc3c(CN(C)C)c(O)ccc3nc2-1,47.7% and 30.2% and 36.7%,,4.95% and 2.59% and 5.86%,,,,27.4 nM and 21.2 nM and 23.9 nM,116% and 100% and 107%,93.6% and 104% and 96.9%,84% and 86.7% and 91.6%,11.4% and 8.49% and 7.63%,,
CCc1c2c(nc3ccc(O)cc13)-c1cc3c(c(=O)n1C2)COC(=O)[C@]3(O)CC,3.41% and 2.61% and 2.84%,,1.84% and 1.42% and 1.47%,,,,< 0.999 nM,25.5% and 14.5% and 17.8%,8.48% and 8.19% and 8.06%,5.42% and 2.67% and 4.25%,2% and 2.11% and 1.97%,,
CN(C)c1ccc(Nc2c3ccc(NC(=O)CCN4CCCC4)cc3nc3cc(NC(=O)CCN4CCCC4)ccc23)cc1,100% [middle of 12 runs],102% [middle of 12 runs],105% [middle of 12 runs],102% [middle of 12 runs],103% [middle of 12 runs],21.1% [middle of 12 runs],,,,,,6.43 µM [middle of 11 runs],
COc1cc(C2c3cc4c(cc3C(OC3OC5COC(C)OC5C(O)C3O)C3COC(=O)C23)OCO4)cc(OC)c1O (stereo not drawn),100% and 98.3% and 90.5%,97.9% and 98.6% and 88.2%,87.8% and 77.3% and 74.2%,43.1% and 30.2% and 27.2%,15.4% and 11.7% and 11.3%,9.14% and 7.67% and 7.65%,843 nM and 618 nM and 573 nM,,,,,,
COc1ccc([C@@H](O)c2cc(-c3ncnc4cc(N5CCOCC5)ccc34)c(F)cc2Cl)nn1,110% and 101% and 96%,103% and 106% and 92.4%,101% and 89.6% and 92.7%,97.4% and 79.5% and 91.5%,79.2% and 89.1% and 88.5%,64.3% and 53.6% and 58.4%,> 10000 nM,,,,,,
COc1cccc2c1C(=O)c1c(O)c3c(c(O)c1C2=O)CC(O)(C(=O)CO)CC3OC1CC(N)C(O)C(C)O1 (stereo not drawn),87.2% and 85.7% and 88.6%,44.6% and 31.4% and 27.5%,23.1% and 20.1% and 23.4%,5.91% and 6.03% and 8.79%,0.33% and 0.51% and 0.46%,2.28% and 1.5% and 4.09%,88.8 nM and 70.9 nM and 70 nM,,,,,,
COc1ncnc(C2CC2)c1-c1ncc2cnn(Cc3ccc(-c4nc(C(F)(F)F)cn4C(C)C)cc3)c2n1,104% (2×) and 93%,101% and 86% and 90.6%,100% and 59.6% and 104%,94% and 35.3% and 100%,99.2% and 25.8% and 107%,,,,,,,,
Cc1[nH]c2ccc(F)cc2c1-c1nc2c3cccnc3c3ncccc3c2[nH]1,99.9% [middle of 12 runs],101% [middle of 12 runs],97.9% [middle of 12 runs],76.9% [middle of 12 runs],,3.15% [middle of 12 runs],,,,,,1.54 µM [middle of 4 runs],1.75 µM [middle of 8 runs]
Cc1[nH]c2ccccc2c1CCNCc1ccc(/C=C/C(=O)NO)cc1,112% and 42% and 57.7%,,,,,,,108% and 90.8% and 92.3%,93.8% and 86.2% and 86.1%,96.1% and 71.2% and 73.6%,94.9% and 25.6% and 28.9%,,
Cc1cccc(N(C)C(=O)C2C(O)CCN2c2nc(C)cc(C(F)(F)F)c2C#N)c1 (stereo not drawn),104% and 98.3% and 102%,100% and 104% (2×),91.8% and 93.8% and 104%,97.2% and 103% and 105%,97.8% and 113% and 97.5%,85% and 79.4% and 86.6%,> 10000 nM,,,,,,
Cc1cnc(CNC(=O)c2c(=O)c3ccc(N4CCCN(C)CC4)nc3n3c2sc2ccccc23)cn1,86.1% [middle of 12 runs],,28.4% [middle of 12 runs],26.3% [middle of 12 runs],27% [middle of 12 runs],0.17% [middle of 9 runs],,,,,,,166 nM [middle of 12 runs]
Cn1ncnc1[C@H]1c2n[nH]c(=O)c3cc(F)cc(c23)N[C@@H]1c1ccc(F)cc1,81.4% and 84.2% and 82.3%,,50.8% and 45.5% and 53.5%,,,,> 316 nM and 246 nM,100% and 96.8% and 93.9%,93.9% and 87.6% and 102%,80.8% and 90.4% and 90%,75.4% and 66.1% and 67.8%,,
Nc1ccn(C2OC(CO)C(O)C2(F)F)c(=O)n1 (stereo not drawn),14.6% and 8.23% and 13.1%,4.17% and 2.77% and 2.12%,2.96% and 2.39% and 3.6%,3.23% and 3.33% and 3.21%,4.11% and 2.94% and 3.73%,3.17% and 3.4% and 3.47%,< 31.6 nM,,,,,,
O=C(NO)c1cnc(N2CCN(S(=O)(=O)c3ccc4ccccc4c3)CC2)nc1,,,3.89% and 20.5% and 27.5%,2.64% and 2.67% and 5.87%,4.12% and 0.29% and 0.35%,3.42% and 1.01% and 0.1%,< 31.6 nM and 121 nM and 187 nM,,,,,,
O=C(c1cc(Cc2n[nH]c(=O)c3ccccc23)ccc1F)N1CCN(C(=O)C2CC2)CC1,99.8% and 85.3% and 97.1%,117% and 107% and 96.9%,112% and 116% and 95.1%,152% and 127% and 126%,144% and 122% (2×),41.6% and 24.8% and 33%,8900 nM and 7180 nM and 7700 nM,,,,,,
O=c1[nH]cc(F)c(=O)[nH]1,94.2% and 107% and 96.5%,102% and 97.5% and 105%,113% and 107% and 99.3%,123% and 89.3% and 95.8%,71.7% and 58.4% and 66%,52.8% and 55% and 55.4%,> 10000 nM,,,,,,
